Results reported in publication PMC7256013, “Preclinical evaluation of cationic DOTA-triarginine-lipid conjugates for theranostic liquid brachytherapy” (Nanotheranostics, 2020).
Residues, ends and D or L forms follow the SMILES beside them. *: point of attachment. DOTA = O=C(O)CN1CCN(CC(=O)O)CCN(CC(=O)*)CCN(CC(=O)O)CC1; Stearoyl = CCCCCCCCCCCCCCCCCC(=O)*; Palmitoyl = CCCCCCCCCCCCCCCC(=O)*

Tests used:
[1] = Ex vivo well counting of tumor and organs; conditions: ex vivo after the 24-hour scan, mean ± SEM
Description: After the completion of PET/CT imaging, mice were sacrificed and tumor, spleen, and liver tissue were collected and well counted (Wizard, Perkin Elmer, US). Tissue radioactivity was recorded and corrected for isotope decay and well counter efficiency. Final results are presented in %ID/organ calculated from activity and the tissue weight.

[2] = Tumor retention and biodistribution by PET/CT after intratumoral injection; conditions: mean ± SEM; for Absolute retention of radioactivity in tumors: PET; for tumor retention: CT26 tumor, PET/CT
Description: CT26 wildtype cells (murine colon carcinoma, ATCC, Virginia, US) were cultured RPMI (Roswell Park Memorial Institute) medium supplemented with 10 % heat-inactivated Fetal Calf Serum (FCS) and 1 % Penicillin-Streptomycin (Invitrogen, Carlsbad, CA., US) retained in 5 % CO2 incubator at 37 °C. Immunocompetent female Balb/C mice (Charles River, Wilmington, MA., USA) were inoculated with tumor cells after one week of adaptation. All 20 mice included were inoculated subcutaneously with 3 x 10^5 CT26 wildtype cells in 100 µL medium on the right flank and hereafter monitored for weight and tumor size continuously for study purposes and to monitor the health of the mice. Tumor sizes were calculated from the formula of 0.52 x lenght^2 x width, as measured by external caliper. Animals were included in the study when tumors were approximately 400 mm^3.
(§2) Mice were injected intratumorally with ^64Cu-compounds in concentrations of 40 MBq/mL. During the scan procedures, mice were anaesthetized using 3-4 % sevoflurane (Abbott Scandinavia AB, Sweden) mixed with 35% O2 and 65% medical grade air and placed on heating pads. Two mice were positioned side-by-side, separated by a 6 mm polystyrene block for PET/CT imaging using Inveon® small animal PET/CT system with CT based PET image attenuation (Siemens Medical Systems, Malvern, PA, USA). The protocol included a 12-minute PET scan, followed by a CT scan. Mice were fixed on a bed inside the scanner with the syringe placed and the needle fixed centrally in the tumor and ready for injection. Upon initiation of the first scan, intratumoral injections were done manually over 30 seconds, to investigate the initial dynamics of the tracer diffusion. Following this, two further scans were included; at six hours (5 minutes scan time) and 24 hours (12 minutes scan time) after injection. Reconstruction of the PET scans were performed using maximum a posteriori (MAP) reconstruction algorithm (voxel size: 0.815 x 0.815 x 0.796 mm; resolution (FWHM) 1.2 mm). The injection scan was reconstructed in 4 x 30 second and 10 x 60 second time frames to observe the dynamics of tracer diffusion. The two last time points were reconstructed in a single time frame.
(§3) Image analysis was performed using commercially available Inveon software (Siemens Medical Systems, Malvern, PA, USA). Regions of interest (ROIs) were manually drawn based on the co-registered PET/CT images. The following ROIs were constructed; tumors (complete volume delineated), liver, spleen, kidney, bladder, and blood. Blood activity was estimated from a constructed ROI covering the left ventricular lumen of the heart. ROIs in the left ventricle and abdominal aorta were subsequently segmented to only include the voxels displaying above 80% of maximum activity with the original ROI. From the obtained uptake values all data was calculated into %ID/g for each organ and as %ID in tumors by adjusting for CT based tumor volume. Furthermore, voxel values from tumor ROIs were used to generate histograms for substance diffusion over time in the tumor region.

[3] = Intratumoral distribution of radioactivity, voxel frequency distribution from PET
Description: as §2, §3
Note that the first point in each plot represents the percentage of voxels with radioactivity concentrations lower than 1.6 %ID/g. These voxels are considered empty, meaning that the corresponding tumor region is non-radioactive.

[4] = Critical micelle concentration by surface tension measurement (Du Noüy); format: physicochemical; conditions: 0.49-250 µM
Description: An Ez-pi+ surface tensiometer, with dyneprobe (diameter: 0.51 mm) and polypropylene sample cuvettes were purchased from Kibron to measure the surface tension.
(§1) D3R-C16 or D3R-C18 was dispersed in ISO-HEPES-NaCl or ISO-HEPES-Sucrose for a final concentration of 250 μM as stock solutions. Sample series were prepared by diluting the stock solutions with ISO-HEPES-NaCl or ISO-HEPES-Sucrose into concentrations of 125, 62.5, 31.25, 15.63, 7.81, 3.91, 1.95, 0.98 and 0.49 μM. The surface tension of the sample was measured by the Du Noüy method with a platinum probe. For each sample, the measurements were repeated until three consecutive measurements varied with less than 1 mN/m between them. Based on the critical micelle concentration of D3R-C18, a micellar dispersion of D3R-C18 in ISO-HEPES-Sucrose (2.0 mM) was prepared. The zeta potential of the D3R-C18 micelles was measured on a Zetasizer (Malvern).

[5] = Micelle size (DLS) and zeta potential; format: physicochemical; conditions: for PDI of micelles / average size of micelles (Z-average): 2.0 mM in ISO-HEPES, DLS; for average size of micelles (Z-average): broad distribution
Description: Liposomes were prepared using a mini-extruder (Avanti Polar Lipids) or a LIPEX Thermobarrel Pressure Extruder (10 mL, Northern Lipids). The hydrodynamic size and zeta potential of liposomes were measured by dynamic light scattering (DLS) on a Zetasizer (Malvern). Intensity weighted lognormal mean sizes are reported, unless otherwise noted. Sizes were measured in ISO-HEPES-NaCl and zeta potentials were measured in ISO-HEPES-Sucrose. Lipid concentrations were measured by ICP-MS (Thermo Scientifc, iCAP Q) by quantifying the phosphorous content of liposome samples against an internal standard of gallium (10 ppb). Sephadex G-25 PD-10 columns (8.3 mL bed volume) were purchased from GE Healthcare.
as §1

CT26 cells = test: Cytotoxicity, MTS assay; format: cell-based, murine; conditions: 4000 cells/well, 24 h incubation with compound, then 48 h without, absorbance 490 nm
Description: CT26 (murine colon carcinoma) was purchased from ATTC (Rockville) and cultured in DMEM medium supplemented with 10% fetal calf serum and pen-strep (Invitrogen Inc) at 37 °C and 5% CO2 in a humidified atmosphere. A commercial MTS assay was used to assess cytotoxicity. (Promega, CellTiter 96® AQueous One Solution Cell Proliferation Assay).
Cells were plated onto 96 well plates at a density of 4000 cells/well the day before the start of experiment. The original culture medium was replaced by medium containing increasing amounts of the indicated agents. After 24 h incubation with D3R-C16 or D3R-C18, the medium was removed and the cells were further incubated for another 48 hours. To measure metabolically active cells, 100 µL of MTS solution was added to the wells and incubated until sufficient amount of color was developed and within the linear range. The absorbance was measured at 490 nm using a microplate reader (Sunrise, Tecan).

[6] = Partitioning of radiolabeled surfactant into liposomes (SEC, PD-10); format: physicochemical; conditions: 37 °C, 60 min, for D3R-C18 at lipid 0.36 and 0.72 mM
Description: Three different liposomes types were prepared: (1) POPC only, (2) POPC-POPG (9:1), (3) commercially available stealth lipid mixture (see above). POPC or the POPC-POPG mixture was freeze- dried from tert-butanol:water (9:1). The resulting lyophilizate or the stealth lipid mixture (187.5 mg) was then hydrated with ISO-HEPES-NaCl (5.0 mL) at 65 ℃ for 60 minutes by magnetic stirring. This was followed by sizing through a mini-extruder with a cut-off size of 100 nm. Size, PDI and zeta potential of all three preparations were measured (Table 1). The liposomes were diluted to lipid concentrations of 0.4, 1.0 and 4.0 mM for partitioning studies.
A dispersion of ^64Cu-D3R-C16 (200 μM) in ISO-HEPES-NaCl (100 µL) was added to POPC liposomes (900 µL, 0.4 mM). The resulting mixture was magnetically stirred at 37 ℃. Mixtures were separated by size-exclusion chromatography (SEC) at 10, 30, 60, 120 and 180 minutes after addition. An aliquot (100 µL) was applied to a PD-10 cartridge and eluted with ISO-HEPES-NaCl. […] The radioactivities of the two collected fractions and the column were measured by dose calibrator. […] The partitioning of the radiolabeled constructs into liposomes was calculated as the ratio of the radioactivity in the liposomal fraction to the total radioactivity of the liposomal fraction plus the column. […] The mixtures were analyzed by SEC by applying 200 µL to a PD-10 cartridge (see above). […]

[7] = 12 minutes post intratumoral injection, 40 MBq/mL
[8] = 5 minutes after the start of the PET scan
[9] = in ISO-HEPES-NaCl (10 mM HEPES, 150 mM NaCl, pH 7.4)
[10] = in ISO-HEPES-Sucrose (10 mM HEPES, 300 mM sucrose, pH 7.4)

Row | SMILES | Accumulation of radioactivity in liver [1] | Accumulation of radioactivity in spleen [1] | Accumulation of radioactivity in tumor [1] | Absolute retention of radioactivity in tumors ([2]; 0.25 min) | Absolute retention of radioactivity in tumors ([2]; 0.75 min) | Absolute retention of radioactivity in tumors ([2]; 1.25 min) | Absolute retention of radioactivity in tumors ([2]; 1.75 min) | Absolute retention of radioactivity in tumors ([2]; 2.5 min) | Absolute retention of radioactivity in tumors ([2]; 3.5 min) | Absolute retention of radioactivity in tumors ([2]; 4.5 min) | Absolute retention of radioactivity in tumors ([2]; 5.5 min) | Absolute retention of radioactivity in tumors ([2]; 6.5 min) | Absolute retention of radioactivity in tumors ([2]; 7.5 min) | Absolute retention of radioactivity in tumors ([2]; 8.5 min) | Absolute retention of radioactivity in tumors ([2]; 9.5 min) | Absolute retention of radioactivity in tumors ([2]; 10.5 min) | Absolute retention of radioactivity in tumors ([2]; 11.5 min) | tumor retention [2, 7] | Absolute retention of radioactivity in tumors ([2]; 6 h) | Absolute retention of radioactivity in tumors ([2]; 24 h) | also measured
1 | [Cl][64Cu][Cl] [Free 64CuCl2] | 14 ± 1 ID%/g | 2 ± 0.6 ID%/g | 11 ± 3 ID%/g | 97 ± 19 %ID/g | 167 ± 50 %ID/g | 164 ± 53 %ID/g | 162 ± 54 %ID/g | 159 ± 53 %ID/g | 156 ± 54 %ID/g | 154 ± 53 %ID/g | 152 ± 53 %ID/g | 150 ± 53 %ID/g | 148 ± 52 %ID/g | 146 ± 52 %ID/g | 145 ± 53 %ID/g | 143 ± 52 %ID/g | 142 ± 51 %ID/g | 45 ± 5 %ID/tumor | 18 ± 3 %ID/g | 10 ± 1 %ID/g | non-radioactive voxels in tumor (<1.6 %ID/g) [3, 8]: less than 10%
2 | O=C([O-])CN1CCN(CC(=O)[O-])CCN(CC(=O)O)CCN(CC(=O)O)CC1.[64Cu+2] [64Cu-DOTA] | 1 ± 0.2 ID%/g | 0.3 ± 0.05 ID%/g | 1 ± 0.3 ID%/g | 78 ± 37 %ID/g | 130 ± 13 %ID/g | 127 ± 14 %ID/g | 123 ± 14 %ID/g | 120 ± 14 %ID/g | 115 ± 14 %ID/g | 111 ± 14 %ID/g | 108 ± 14 %ID/g | 105 ± 14 %ID/g | 102 ±14 %ID/g | 100 ± 14 %ID/g | 97 ± 13 %ID/g | 94 ± 13 %ID/g | 92 ± 12 %ID/g | 52 ± 4 %ID/tumor | 4 ± 1 %ID/g | 2 ± 0.8 %ID/g | tumor retention ([2]; 6 hours post intratumoral injection): 2.4 ± 0.7 %ID/tumor; tumor retention ([2]; 24 hours post intratumoral injection): 1.4 ± 0.4 %ID/tumor; non-radioactive voxels in tumor (<1.6 %ID/g) [3, 8]: less than 10%; non-radioactive voxels in tumor (<1.6 %ID/g) ([3]; 6 h): More than 40%
3 | CCCCCCCCCCCCCCCCCC(=O)N[C@@H](CCCNC(=N)N)C(=O)N[C@@H](CCCNC(=N)N)C(=O)N[C@@H](CCCNC(=N)N)C(=O)N[C@@H](CCCCNC(=O)CN1CCN(CC(=O)O)CCN(CC(=O)O)CCN(CC(=O)O)CC1)C(N)=O [D3R-C18] (Stearoyl-RRRK(DOTA)-NH2) |  |  |  |  |  |  |  |  |  |  |  |  |  |  |  |  |  |  |  |  | CMC [4, 9]: about 10 µM; CMC [4, 10]: above 100 µM; PDI of micelles [5]: 0.3; average size of micelles (Z-average) [5]: 10 nm; zeta potential of micelles ([5]; 2.0 mM micellar dispersion in ISO-HEPES-Sucrose, Zetasizer): 20.7 ± 0.5 mV; median lethal concentration (LC50) (CT26 cells): above 100 µM
4 | CCCCCCCCCCCCCCCC(=O)N[C@@H](CCCNC(=N)N)C(=O)N[C@@H](CCCNC(=N)N)C(=O)N[C@@H](CCCNC(=N)N)C(=O)N[C@@H](CCCCNC(=O)CN1CCN(CC(=O)O)CCN(CC(=O)O)CCN(CC(=O)O)CC1)C(N)=O [D3R-C16] (Palmitoyl-RRRK(DOTA)-NH2) |  |  |  |  |  |  |  |  |  |  |  |  |  |  |  |  |  |  |  |  | stealth liposome partitioning, 177Lu label compared with 64Cu label [6]: no significant difference; CMC [4, 9]: about 40 µM; CMC [4, 10]: above 100 µM; PDI of micelles [5]: 0.3; average size of micelles (Z-average) [5]: 10 nm; median lethal concentration (LC50) (CT26 cells): above 100 µM
